One series has as its system rabbit platelets. In words: ADP-induced platelet aggregation assay. The series is classed as cell-based. Particulars: Oryctolagus cuniculus, m ± SD, n = 5. How it is done: Platelet aggregation was assessed on a two-channel laser analyzer “BIOLA-220 LA” (Russia) as described previously using rabbit platelets.
A further series addresses T1, rabbit platelet NHE-1 (Oryctolagus cuniculus, UniProt P23791).
T1 construct: endogenous in cells; host or cells: rabbit platelets
The series is described as follows: NHE-1 inhibition assay (rabbit platelets, laser aggregometer). The series is classed as cell-based. The settings on record: rabbit platelets; for inhibition at 0.01 µM: 10 nM, m ± SD, n = 6. The procedure:
Inhibition of rabbit platelet NHE-1 was determined according to the method of [8, 9] in our modification, which was reported by us previously using the laser aggregometer BIOLA-220 LA (Russia).
Target compounds were evaluated as inhibitors of rabbit platelet NHE-1 (Table 1). It was shown that the substitution of H^5 with bromine decreased the activity of compounds 3b and 4b, indicating possible steric limitations of the binding site.

A further series concerns rat intraocular pressure. In words: Intraocular pressure study (TonoVet). Particulars: rats, 0.4% eye drops; for Max IOP Reduction: m ± SD, n = 5; for IOP-lowering activity reduction relative to 4a: vs 4a. The format is in vivo. How it is done: Intraocular pressure was measured on 75 adult outbred rats of both sexes with a TonoVet device (Finland) as reported by us previously.
To access the influence on rat eye aqueous humor formation, the studied compounds were administered as 0.4% eye drops. […] Introduction of 5-bromine (4b) or acyclic guanidine N^1 , N^3 -side chains (3a) led to 2- and 3-fold activity reduction, respectively.

The test system of another series is male ICR mice. In words: Tail suspension test (antidepressant activity). The format is in vivo. Particulars: mean ± SD, n = 6, vehicle 264.8 ± 11.6 s. How it is done: Antidepressant activity was determined on 36 male ICR mice weighing 22–25 g as described in [14] using the Panlab LE808 apparatus.
The tail suspension test was used to assess the antidepressant activity of the most-active NHE-1 inhibitors.

A short description of series [1]: Cytotoxicity, lactate dehydrogenase (LDH) assay. The format is cell-based, mice. Particulars: C57bl/6j, mouse, primary peritoneal macrophages stimulated with E. coli LPS; LPS-stimulated macrophages; n = 3; read-out: LDH CC50 ± SE. The procedure:
(§1) The activity of lactate dehydrogenase (LDH) in a cell culture medium was determined as reported by us previously with a microplate reader Infinite M200 PRO (Tecan, Austria).
(§2) Given our primary focus on the development of agents against cytokine-mediated tissue damage, we evaluated the target compounds as inhibitors of pro-inflammatory macrophage activation. Primary peritoneal macrophages were isolated from C57bl/6j mice, pooled, and stimulated with E. coli LPS as TLR4 agonist. Pro-inflammatory activation was assessed as nitric oxide (NO) synthesis and interleukin-6 (IL-6) secretion. The cytotoxicity of the compounds was monitored in parallel using the lactate dehydrogenase assay.
(§3) In an attempt to identify safer alternatives to steroid anti-inflammatory agents, it is mandatory to evaluate lead compounds for immunodepressant activity. To do so, we determined the influence of compound 4a on macrophage phagocytosis after 72 h of incubation. Cell viability was monitored in parallel via the LDH assay.

Series [2] relates to LPS-stimulated C57bl/6j peritoneal macrophages. In words: LPS-induced nitric oxide synthesis in primary peritoneal macrophages (Griess). The format is cell-based, mice. Particulars: Mus musculus, Peritoneal macrophage, LPS 100 ng/mL, 22 h incubation, n = 3; for IC50: read-out: NO Synthesis IC50 ± SE. The procedure: (§4) Primary C57bl/6j murine macrophages were elicited with intraperitoneal injection of 3% peptone solution as per the standard procedure. Stimulation of inflammatory response was performed with E. coli O127:B8 LPS (100 ng/mL final concentration).
(§5) Nitric oxide was determined in culture supernatants as a nitrite anion with a standard Griess reagent after 22 h of incubation with test compounds at a wavelength of 550 nm with a microplate reader Infinite M200 PRO (Tecan GmbH, Grodig, Austria). Concentrations of IL-6 and TNF- α in cell supernatants were quantified with commercial ELISA kits according to the manufacturer’s instructions (Cloud-clone Corp., Katy, TX, USA).
as §2

The test system is the same in series [3]. The series is described as follows: LPS-induced IL-6 secretion in primary peritoneal macrophages (ELISA). The series is classed as cell-based, mice. The settings on record: Mus musculus, Peritoneal macrophage; LPS 100 ng/mL; n = 3; read-out: IL-6 Secretion IC50 ± SE. The procedure: as §4, §5, §2
Series [4] relates to C57bl/6j peritoneal macrophages. The series is described as follows: Macrophage phagocytosis assay. The format is cell-based, mice. The procedure: The phagocytic activity of peritoneal macrophages was assessed after staining with Azur-Eosin with Romanovsky’s modifications as reported by us previously with a light microscopy using a Mikmed-6 (LOMO, Saint Petersburg, Russia) equipped with a digital camera.
as §3
(Figure 3). The mean number of phagocytosed particles per cell was […]. […] Macrophage spreading was registered and visually scored as a phenotypic marker of cell activation phagocytic capacity.

The test system is the same in series [5]. In words: Cytotoxicity, lactate dehydrogenase (LDH) assay. The series is classed as cell-based, mice. Particulars: 72 h of incubation, in parallel to phagocytosis. The procedure:
as §1, §2, §3

For the next series, the system named is C57bl/6j mice. In words: LPS-induced acute lung injury model. The series is classed as in vivo. The settings on record: dexamethasone 5 mg/kg i.p. The procedure: Prior to the experiment, C57BL/6J mice were randomized according to body weight and motor activity in an open field test. […] Animals of the control group were injected with an equal volume of the vehicle. Animals were anesthetized with isoflurane inhalation until the breathing rate decreased 1 h later. Mice were suspended by the front incisors on an inclined surgical table; the tongue was pulled out with narrow curved tweezers, and 1 mg/mL of E. coli O127:B8 LPS (Sigma-Aldrich, Israel) in 1 mL/kg sterile saline was injected into the back of the oropharynx to allow aspiration. Intact animals received an equal volume of sterile saline in a similar way.
The open field test was performed with the NPO “Open Science” (Russia) arena of 44 cm diameter and 32 cm wall height under 300 lux lighting as reported by us previously.
Mice were anesthetized with 500 mg/kg chloral hydrate (Sigma-Aldrich, Germany) intraperitoneally 24 h after LPS administration. Blood and bronchoalveolar lavage (BAL) sampling was performed as described in [13]. Leukocyte counts and the lung permeability index were determined as described by us previously.
Histological and immunohistological assessment of tissue sections was performed in a semi-quantitative way on paraffin sections after hematoxylin and eosin staining with a light microscope (Zeiss, Germany) with double-blinding. The degree of inflammation was determined as previously reported.
Lung injury was assessed 24 h later based on behavioral, biochemical, cytological, and morphological alterations.

One may read the inhibition as the share of the control response that was lost under treatment. By IC50 is commonly meant the concentration that inhibits the measured activity by half. What is called CC50 is the concentration giving 50% cytotoxicity. Broadly, the melting point is the temperature of the solid-liquid transition. The term EC50 denotes the concentration giving half of the maximal effect.

Where only a bound is given, the exact number is not on record here.

T1 sequence (P23791 whole entry): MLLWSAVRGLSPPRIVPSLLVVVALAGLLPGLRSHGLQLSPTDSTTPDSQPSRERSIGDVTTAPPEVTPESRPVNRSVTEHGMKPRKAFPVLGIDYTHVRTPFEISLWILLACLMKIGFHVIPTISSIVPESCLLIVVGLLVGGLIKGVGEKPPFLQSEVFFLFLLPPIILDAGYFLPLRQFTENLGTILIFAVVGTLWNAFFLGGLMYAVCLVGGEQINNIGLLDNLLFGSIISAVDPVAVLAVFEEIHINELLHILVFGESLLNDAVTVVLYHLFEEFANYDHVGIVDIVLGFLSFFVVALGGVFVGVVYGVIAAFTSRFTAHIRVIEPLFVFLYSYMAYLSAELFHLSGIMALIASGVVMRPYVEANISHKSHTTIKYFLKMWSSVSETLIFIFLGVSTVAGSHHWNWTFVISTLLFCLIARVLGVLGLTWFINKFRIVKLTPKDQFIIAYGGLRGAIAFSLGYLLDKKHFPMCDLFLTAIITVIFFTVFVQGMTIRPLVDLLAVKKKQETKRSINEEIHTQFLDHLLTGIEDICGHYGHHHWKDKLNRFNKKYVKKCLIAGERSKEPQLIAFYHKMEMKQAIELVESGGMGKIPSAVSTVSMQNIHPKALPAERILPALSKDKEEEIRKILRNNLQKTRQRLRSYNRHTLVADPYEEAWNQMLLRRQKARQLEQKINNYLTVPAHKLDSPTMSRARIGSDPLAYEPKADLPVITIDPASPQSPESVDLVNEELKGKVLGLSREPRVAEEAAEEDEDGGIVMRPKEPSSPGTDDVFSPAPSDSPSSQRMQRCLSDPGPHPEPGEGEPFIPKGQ

As to `CC(=O)Oc1ccccc1C(=O)O` [Acetylsalicylic acid, acetylsalicylic acid, reference compound], the inhibition at 100 µM with rabbit platelets turned out to be 31.6 ± 4.6%.

On rabbit platelet NHE-1, `N=C(N)NC(=O)c1nc(Cl)c(N)nc1N` [Amiloride, amiloride, reference compound] showed an inhibition at 0.01 µM of 5.39 ± 1.82% and an IC50 of 1.23 µM. The molecule also showed an inhibition at 100 µM in the series with rabbit platelets of 67.6 ± 1%. Besides, the “Max IOP Reduction” value in the series on rat intraocular pressure amounted to 18.39 ± 14.58%. Besides, the “Immobilization Time” value in the series with male ICR mice (2.6 mg/kg) is listed as 172.7 ± 8.54 s. Also, the CC50 in [1] was greater than 100 µM. Moreover, the IC50 in series [2] turned out to be 0.62 ± 0.05 µM.

Regarding `CN(C)CCC=C1c2ccccc2CCc2ccccc21` [Amitriptyline, amitriptyline], the “Immobilization Time” value in the series on male ICR mice (10 mg/kg) amounted to 50.2 ± 12.71 s.

As to `N=C(N)NC(=O)Cn1c(=O)c2ccccc2n(CC(=O)NC(=N)N)c1=O` [Compound 3a, 2,2’-(2,4-Dioxoquinazoline-1,3(2H,4H)-diyl)bis(N-carbamimidoylacetamide)], the melting point fell in the range of 336 to 338 °C. In [3], the half-inhibitory concentration (IC50) is greater than 100 µM. Besides, at rabbit platelet NHE-1, 0.01 µM produced 37.2 ± 5.97% inhibition and the “NHE-1 IC50” value was “nanomolar range”. For the same molecule, the inhibition at 100 µM in the series on rabbit platelets came out at 44.3 ± 14.3%. In the series with rat intraocular pressure, the “Max IOP Reduction” value was determined as 10.08 ± 5.8% and the “IOP-lowering activity reduction relative to 4a” value came out at 3 fold. Besides, in series [1], the CC50 was greater than 100 µM. Moreover, in [2], the concentration for half-maximal inhibition (IC50) was greater than 100 µM.

`N=C(N)NC(=O)Cn1c(=O)c2cc(Br)ccc2n(CC(=O)NC(=N)N)c1=O` [Compound 3b, 2,2’-(6-Bromo-2,4-dioxoquinazoline-1,3(2H,4H)-diyl)bis(N-carbamimidoylacetamide)]: the melting point was greater than 400 °C. The 50% inhibitory concentration (IC50) in series [3] is greater than 100 µM. In addition, at rabbit platelet NHE-1, 0.01 µM produced 10.2 ± 3.72% inhibition. The molecule further showed an inhibition at 100 µM in the series with rabbit platelets of 46.4 ± 9.2%. Besides, the “Max IOP Reduction” value in the series on rat intraocular pressure was 24.17 ± 5.05%. Further, the CC50 in [1] was greater than 100 µM. For the same molecule, the IC50 in series [2] was greater than 100 µM.

Take `Nc1nnc(Cn2c(=O)c3cc(Br)ccc3n(Cc3nnc(N)[nH]3)c2=O)[nH]1` [Compound 4b, 1,3-Bis[(5-amino-4H-1,2,4-triazol-3-yl)methyl]-6-bromoquinazoline-2,4(1H,3H)-dione]: the melting point is greater than 400 °C. Moreover, the IC50 in [3] turned out to be 64.8 ± 4.31 µM. The molecule also gave an inhibition at 0.01 µM on rabbit platelet NHE-1 of 16.2 ± 3.75%. The inhibition at 100 µM with rabbit platelets was found to be 47.4 ± 8.9%. Besides, in the series on rat intraocular pressure, the “Max IOP Reduction” value turned out to be 15.45 ± 9.39% and the “IOP-lowering activity reduction relative to 4a” value amounted to 2 fold. Further, the “Immobilization Time” value in the series with male ICR mice (4.9 mg/kg) is reported as 168.2 ± 19.52 s. In addition, in series [1], the CC50 is greater than 100 µM. Further, in [2], the IC50 stood at 71 ± 4.89 µM.

For the molecule `C[C@@H]1C[C@H]2[C@@H]3CCC4=CC(=O)C=C[C@]4(C)[C@@]3(F)[C@@H](O)C[C@]2(C)[C@@]1(O)C(=O)CO` [Dexamethasone, dexamethasone, reference compound], the IC50 in series [3] turned out to be 0.003 ± 0.001 µM. In addition, in series [4] (72 h of incubation), the “Mean number of phagocytosed particles per cell” value was 59% and the Phagocytic activity was determined as 41 % from control. Further, the “Macrophage spreading (visually scored)” value in series [4] (yeast-treated macrophages, 72 h) is “more evident”. In series [5], the “Cell viability (LDH assay)” value is recorded as “did not influence cell viability”. Besides, the CC50 in [1] is greater than 100 µM. Moreover, in series [2], the IC50 came to 0.003 ± 0.001 µM. Besides, the “Exploratory activity, open field test” value with C57bl/6j mice is “comparably improved exploratory activity”. The “Motor activity, open field test” value with C57bl/6j mice (2 and 22 h after LPS) was “reduced the LPS-induced motor and behavioral alterations”. In addition, in the series with C57bl/6j mice (24 h after LPS), the “CD68+ macrophage accumulation in lung tissue (immunostaining)” value was “significantly reduced this phenomenon”, the “Plasma IL-6” value was “significantly reduced plasma IL-6” and the “Segmented neutrophils in BAL” value is “significantly ameliorated the accumulation of segmented neutrophils”.

Regarding `CN(C)CCCN1c2ccccc2CCc2ccccc21` [Imipramine, imipramine], the “Immobilization Time” value with male ICR mice (8 mg/kg) worked out at 112.5 ± 20.56 s.

Consider `N=C(N)NC(=O)c1cnn(-c2cccc3ncccc23)c1C1CC1` [Zoniporide, zoniporide, reference compound], for which the IC50 in [3] is greater than 100 µM. The CC50 in series [1] was determined as 407 ± 27.6 µM. Further, in series [2] (printed as EC50 in the IC50 column, read-out: NO Synthesis EC50 ± SE), the EC50 was 15.6 µM.

Source of the values: PMC9605072, “Guanidine Derivatives of Quinazoline-2,4(1H,3H)-Dione as NHE-1 Inhibitors and Anti-Inflammatory Agents” (Life, 2022).
